Where two headings read alike, the source gives them in different places.
Columns and labels:
[1] = system: 5/6 nephrectomy (Nx) rat model of renal insufficiency; assay: PTH suppression in 5/6 Nx rats, daily dosing for 28 days; format: in vivo; conditions: daily 28 days, Ac-c(C)arrrar-NH2 1 mg/kg IV, cinacalcet 10 mg/kg PO
Experimental: The therapeutic efficacy of Ac-c(C)arrrar-NH2 (SEQ ID NO:3) was assessed using the 5/6 nephrectomy (Nx) rat model of renal insufficiency. The 5/6 Nx male rats were obtained from Charles River Laboratories (Wilmington, Mass.). These rats have undergone surgical removal of one kidney and ⅔ of the other kidney and were fed a high-phosphate diet. All experimental procedures with animals were performed according to IACUC guidelines. Statistical analysis was performed using one-way ANOVA with Bonferroni post test. All p-values are nominal.
Tail vein blood samples were taken periodically for measurement of PTH. PTH was measured using the Immutopics BioActive Intact ELISA (Cat #60-2700; Immutopics, San Clemente, Calif.).

[2] = Single-dose clinical study: pharmacokinetics, noncompartmental analysis; format: in vivo, human; conditions: for clearance / AUC / Cmax / half-life / Vd: human; for Vd: read-out: Vss
Experimental: (§1) A clinical study was performed to assess the safety and tolerability of rising single doses of Ac-c(C)arrrar-NH2 (SEQ ID NO:3), administered by IV bolus to patients diagnosed with CKD-BMD and SHPT, and who were receiving hemodialysis. Data were generated to measure changes in patient serum intact PTH (iPTH) and serum calcium as well as bioavailability of the single dose of Ac-c(C)arrrar-NH2 (SEQ ID NO:3).
(§2) A double-blind, randomized, placebo-controlled, multicenter study in subjects receiving thrice-weekly hemodialysis (HD) was designed and carried out. The major inclusion criteria included hemodialysis for at least 3 months prior to the start of the study, a serum iPTH level greater than 300 pg/mL, a serum cCa (corrected calcium) level greater than or equal to 9.0 mg/dL and receiving of stable doses of active vitamin D or analogs, phosphate binders, and calcium supplements.
(§3) Cohorts 1, 2 and 3 were conducted with a two-period crossover design. Each cohort enrolled 4 subjects randomized 1:1 to Ac-c(C)arrrar-NH2 (SEQ ID NO:3) followed by placebo or placebo followed by Ac-c(C)arrrar-NH2 (SEQ ID NO:3). The dose levels of Ac-c(C)arrrar-NH2 (SEQ ID NO:3) for Cohorts 1-3 were 5, 10 and 20 mg. Cohort 4 enrolled 8 subjects who were randomized 1:1 to 40 mg Ac-c(C)arrrar-NH2 (SEQ ID NO:3) or placebo in a parallel group. Cohort 5 enrolled 8 subjects were randomized 1:1 to 60 mg Ac-c(C)arrrar-NH2 (SEQ ID NO:3) or placebo in a parallel group.
(§4) Ac-c(C)arrrar-NH2 (SEQ ID NO:3) or placebo was administered by IV bolus injection 2-4 hours following completion of HD.
Pharmacokinetic (PK) analysis was performed on samples obtained from the treated subjects to determine bioavailability of the administered Ac-c(C)arrrar-NH2 (SEQ ID NO:3). […] Clearance (CL) and volume of distribution as steady state (Vss) values appear to be dose-independent over the range evaluation. Total clearance of Ac-c(C)arrrar-NH2 (SEQ ID NO:3) was approximately about 2 L/h. Ac-c(C)arrrar-NH2 (SEQ ID NO:3) was readily cleared from the central compartment by hemodialysis.

[3] = system: patients diagnosed with CKD-BMD and SHPT receiving hemodialysis; assay: Single-dose clinical study: corrected calcium; format: in vivo, human; conditions: single IV bolus 5-60 mg
Experimental: as §1
A double-blind, randomized, placebo-controlled, multicenter study in subjects receiving thrice-weekly hemodialysis (HD) was designed and carried out. The major inclusion criteria included hemodialysis for at least 3 months prior to the start of the study, a serum iPTH level greater than 300 pg/mL, a serum cCa (corrected calcium) level greater than or equal to 9.0 mg/dL and receiving of stable doses of active vitamin D or analogs, phosphate binders, and calcium supplements. […]
Serum iPTH levels were determined using the electrochemiluminescence immunoassay (ECLIA) on the Roche Elecsys® analyzer. Calcium levels were adjusted for albumin <4 g/dL with the following equation: cCa=[measured Ca in mg/dL]+[4-(albumin in g/dL)]×0.8
The effects of Ac-c(C)arrrar-NH2 (SEQ ID NO:3) administration on serum iPTH and corrected calcium levels was also determined in this study. […] Blood from each subject was then analyzed to determine levels of iPTH and corrected calcium. […]

[4] = system: patients diagnosed with CKD-BMD and SHPT receiving hemodialysis; assay: Single-dose clinical study: adverse events; format: in vivo, human; conditions: for Adverse Event: Anemia / Adverse Event: Congestive heart failure / Adverse Event: Decreased ionized calcium / Adverse Event: Gastro-esophageal reflux / Adverse Event: Injection site pruritis / Adverse Event: Paresthesias / Adverse Event: Pneumonia / Adverse Event: Toothache / Number of subjects with ≧1 AE: n (%) of subjects
Experimental: as §1, §2, §3, §4
Adverse events were captured through 7 days after study drug administration.
Adverse events experienced by each of the subjects was recorded for 7 days after administration of the Ac-c(C)arrrar-NH2 (SEQ ID NO:3) or placebo. A single serious adverse event occurred in one subject who had been treated with placebo in the 10 mg dose cohort. The subject discontinued form the study prior to receiving Ac-c(C)arrrar-NH2 (SEQ ID NO:3). There were no reports of nausea, vomiting or diarrhea.

[5] = plasma, Cohort 1, 5 mg single IV bolus, hemodialysis subjects, geometric mean
[6] = plasma, Cohort 2, 10 mg single IV bolus, hemodialysis subjects, geometric mean
[7] = plasma, Cohort 3, 20 mg single IV bolus, hemodialysis subjects, geometric mean
[8] = plasma, Cohort 4, 40 mg single IV bolus, hemodialysis subjects, geometric mean
[9] = plasma, Cohort 5, 60 mg single IV bolus, hemodialysis subjects, geometric mean

C[C@@H](NCCCc1cccc(C(F)(F)F)c1)c1cccc2ccccc12 [cinacalcet]
PTH levels (in words) ([1]; 6 hours after the last dosing): reduced | PTH levels (in words) ([1]; 16 hours after the last dosing): increased | PTH levels (in words) ([1]; 48 hours after the last dosing): increased

CC(=O)N[C@H](CSSC[C@H](N)C(=O)O)C(=O)N[C@H](C)C(=O)N[C@H](CCCNC(=N)N)C(=O)N[C@H](CCCNC(=N)N)C(=O)N[C@H](CCCNC(=N)N)C(=O)N[C@H](C)C(=O)N[C@H](CCCNC(=N)N)C(N)=O [Ac-c(C)arrrar-NH2]
Clearance (CL) and volume of distribution (Vss) relative to dose ([2]; 5-60 mg single IV bolus): dose-independent | total plasma exposure (Cmax and AUCall) relative to dose ([2]; 5-60 mg single IV bolus): reasonably proportional to the administered dose | clearance ([2]; in vivo, intravenous, estimated, hemodialysis subjects, read-out: Hemodialysis clearance (converted)): ~550 mL/min | AUC [2, 5]: 1.08 µg·h/mL | Cmax [2, 5]: 0.133 µg/mL | clearance ([2]; plasma, Cohort 1, 5 mg single IV bolus, hemodialysis subjects, geometric mean, read-out: CL (converted)): 28 mL/min | half-life ([2]; plasma, Cohort 1, 5 mg single IV bolus, hemodialysis subjects, geometric mean, read-out: T½ (converted)): 121 h | Vd [2, 5]: 278 L | AUC [2, 6]: 2.77 µg·h/mL | Cmax [2, 6]: 0.257 µg/mL | clearance ([2]; plasma, Cohort 2, 10 mg single IV bolus, hemodialysis subjects, geometric mean, read-out: CL (converted)): 31.8 mL/min | half-life ([2]; plasma, Cohort 2, 10 mg single IV bolus, hemodialysis subjects, geometric mean, read-out: T½ (converted)): 81.7 h | Vd [2, 6]: 203 L | AUC [2, 7]: 4.68 µg·h/mL | Cmax [2, 7]: 0.479 µg/mL | clearance ([2]; plasma, Cohort 3, 20 mg single IV bolus, hemodialysis subjects, geometric mean, read-out: CL (converted)): 20.2 mL/min | half-life ([2]; plasma, Cohort 3, 20 mg single IV bolus, hemodialysis subjects, geometric mean, read-out: T½ (converted)): 175 h | Vd [2, 7]: 293 L | AUC [2, 8]: 8.89 µg·h/mL | Cmax [2, 8]: 0.686 µg/mL | AUC [2, 9]: 14.8 µg·h/mL | Cmax [2, 9]: 1.08 µg/mL | clearance ([2]; plasma, Cohort 5, 60 mg single IV bolus, hemodialysis subjects, geometric mean, read-out: CL (converted)): 24.2 mL/min | half-life ([2]; plasma, Cohort 5, 60 mg single IV bolus, hemodialysis subjects, geometric mean, read-out: T½ (converted)): 115 h | Vd [2, 9]: 232 L | half-life ([2]; plasma, across the dose range 5-60 mg single IV bolus, read-out: geometric mean terminal elimination half-life): 81.7 to 175 h | clearance ([2]; plasma, single IV bolus, hemodialysis subjects, read-out: Total clearance (converted)): ~33.3 mL/min | corrected calcium level, lowest in any subject at any time during the study [3]: ≥ 7.5 mg/dL | Adverse Event: Anemia ([4]; 5 mg dose cohort): 0 (0%) | Adverse Event: Congestive heart failure ([4]; 5 mg dose cohort): 0 (0%) | Adverse Event: Decreased ionized calcium ([4]; 5 mg dose cohort): 0 (0%) | Adverse Event: Gastro-esophageal reflux ([4]; 5 mg dose cohort): 1 (25%) | Adverse Event: Injection site pruritis ([4]; 5 mg dose cohort): 0 (0%) | Adverse Event: Paresthesias ([4]; 5 mg dose cohort): 1 (25%) | Adverse Event: Pneumonia ([4]; 5 mg dose cohort): 0 (0%) | Adverse Event: Toothache ([4]; 5 mg dose cohort): 0 (0%) | Number of subjects with ≧1 AE ([4]; 5 mg dose cohort): 1 (25%) | Adverse Event: Anemia ([4]; 10 mg dose cohort): 0 (0%) | Adverse Event: Congestive heart failure ([4]; 10 mg dose cohort): 0 (0%) | Adverse Event: Decreased ionized calcium ([4]; 10 mg dose cohort): 1 (33%) | Adverse Event: Gastro-esophageal reflux ([4]; 10 mg dose cohort): 0 (0%) | Adverse Event: Injection site pruritis ([4]; 10 mg dose cohort): 0 (0%) | Adverse Event: Paresthesias ([4]; 10 mg dose cohort): 0 (0%) | Adverse Event: Pneumonia ([4]; 10 mg dose cohort): 0 (0%) | Adverse Event: Toothache ([4]; 10 mg dose cohort): 0 (0%) | Number of subjects with ≧1 AE ([4]; 10 mg dose cohort): 1 (33%) | Adverse Event: Anemia ([4]; 20 mg dose cohort): 0 (0%) | Adverse Event: Congestive heart failure ([4]; 20 mg dose cohort): 0 (0%) | Adverse Event: Decreased ionized calcium ([4]; 20 mg dose cohort): 0 (0%) | Adverse Event: Gastro-esophageal reflux ([4]; 20 mg dose cohort): 0 (0%) | Adverse Event: Injection site pruritis ([4]; 20 mg dose cohort): 0 (0%) | Adverse Event: Paresthesias ([4]; 20 mg dose cohort): 0 (0%) | Adverse Event: Pneumonia ([4]; 20 mg dose cohort): 0 (0%) | Adverse Event: Toothache ([4]; 20 mg dose cohort): 1 (25%) | Number of subjects with ≧1 AE ([4]; 20 mg dose cohort): 1 (25%) | Adverse Event: Anemia ([4]; 40 mg dose cohort): 0 (0%) | Adverse Event: Congestive heart failure ([4]; 40 mg dose cohort): 0 (0%) | Adverse Event: Decreased ionized calcium ([4]; 40 mg dose cohort): 4 (100%) | Adverse Event: Gastro-esophageal reflux ([4]; 40 mg dose cohort): 0 (0%) | Adverse Event: Injection site pruritis ([4]; 40 mg dose cohort): 1 (25%) | Adverse Event: Paresthesias ([4]; 40 mg dose cohort): 1 (25%) | Adverse Event: Pneumonia ([4]; 40 mg dose cohort): 0 (0%) | Adverse Event: Toothache ([4]; 40 mg dose cohort): 0 (0%) | Number of subjects with ≧1 AE ([4]; 40 mg dose cohort): 4 (100%) | Adverse Event: Anemia ([4]; 60 mg dose cohort): 0 (0%) | Adverse Event: Congestive heart failure ([4]; 60 mg dose cohort): 0 (0%) | Adverse Event: Decreased ionized calcium ([4]; 60 mg dose cohort): 2 (50%) | Adverse Event: Gastro-esophageal reflux ([4]; 60 mg dose cohort): 0 (0%) | Adverse Event: Injection site pruritis ([4]; 60 mg dose cohort): 0 (0%) | Adverse Event: Paresthesias ([4]; 60 mg dose cohort): 0 (0%) | Adverse Event: Pneumonia ([4]; 60 mg dose cohort): 0 (0%) | Adverse Event: Toothache ([4]; 60 mg dose cohort): 0 (0%) | Number of subjects with ≧1 AE ([4]; 60 mg dose cohort): 2 (50%) | tolerability ([4]; single IV bolus 5-60 mg): very well-tolerated | reports of nausea, vomiting or diarrhea ([4]; single IV bolus 5-60 mg, 7 days after administration): no reports
